According to patent publication US8778886B2, “Methods of making and using a cell penetrating peptide for enhanced delivery of nucleic acids, proteins, drugs, and adenovirus to tissues and cells, and compositions and kits” (Tufts University, priority 2007, dated 2014):
Residues, ends and D or L forms follow the SMILES beside them. No end group written: not given here. *: point of attachment. FITC = O=C1OC2(c3ccc(O)cc3Oc3cc(O)ccc32)c2ccc(NC(=S)*)cc21

Legend:
[1] = system: HER cells; assay: Membrane permeabilization, propidium iodide uptake after F-POD; format: cell-based, human; details: FACS, F-POD 0.2 to 2.0 μM (average), Triton-X100 1%
Protocol: HER cells were seeded on Lab Tek-II chamber slides and grown to about 70% confluence. Cells were washed twice with PBS and incubated with […] L-POD for 0, 5, 15, 30, 45, and 60 minutes or 1 nmol Lissamine only for 60 minutes. Cells were fixed for 15 minutes in formalin at room temperature. Cells for live imaging were grown on 24 well plates and incubated with […] of L-POD. Following incubation, cells were washed three times with PBS, incubated in phenol red-free DMEM supplemented with 2% FBS. Cells were visualized by light and fluorescent microscopy using either an Olympus IX51 (live cells) or an Olympus BX51 (fixed cells) with DIC, RFP, and GFP filters. Images were obtained using a Retiga 2000R FAST camera and QCapture Pro 5.0 (QImaging, BC, Canada). To measure L-POD uptake in the presence of trypsin, 0.2×10^6 HER cells were incubated with 2.0 nmole L-POD in media for 15 minutes at 37° C. followed by incubation in 2.5 mg/ml trypsin for 12 minutes at 37° C. For analysis of uptake at 4° C., cells were cooled to 4° C. for 45 minutes prior to the addition of peptide and cold (4° C.) reagents were used for peptide administration. […] The number of PI-positive cells was analyzed by FACS. […] Examples were performed in triplicate and 10,000 events per sample were counted. Results were analyzed using CellQuest Pro software (Becton Dickinson). […]

[2] = system: E. coli; assay: Microbicidal activity, colony count after plating; format: cell-based; details: 2 hours at 37° C., plating on LB agar
Protocol: (§1) Lissamine conjugated POD (L-POD) and either heparan sulfate or chondroitan sulfate were incubated together at each of molar ratios of 1:3.33, 1:6.67, and 1:8 in water for 30 minutes at room temperature. The complex was diluted in DMEM+2% FBS and added to 0.2×]06 HER cells for 5 minutes at 37° C. Following incubation, cells were trypsinized and suspended in PBS for FACS analysis as described above. To measure microbicidal activity of C-POD, XL-1 Blue cells (Stratagene, La Jolla, Calif.) were grown to mid logarithmic phase (OD600=0.600) and washed twice in a solution of 10 mM Tris, pH 7.4 and 5 mM Glucose. The cells were resuspended in 10 mL of the same solution and […] of the suspension was incubated with C-POD in a final volume of 50 μL. The peptide/bacteria cell solution was rocked for 2 hours at 37° C. The peptide-treated bacteria was diluted 1:4500 with LB broth, plated on agar, and grown overnight at 37° C. The following day, the bacterial colonies on each plate were counted to quantify peptide-related reduction in growth.
Since endophthalmitis, an infection within the eye, is regularly a complicating factor in drug delivery to ocular tissues [Ho J et al. 2007 Int Opthalmol Clin 47: 199-208], C-POD was examined for potential microbicidal activities. E. coli cells grown to mid-log phase were incubated with either H20 only or C-POD suspended in H20 at concentrations ranging from 0.03 μM to 60 μM, and cell number was determined by plating samples on LB agar. […] Greater concentrations of C-POD completely eliminated bacterial growth.

[3] = system: Human embryonic retinal (HER) 911 cells; assay: L-POD uptake by HER cells (microscopy, lissamine-positive cells by FACS); format: cell-based
Protocol: HER cells were seeded on Lab Tek-II chamber slides and grown to about 70% confluence. Cells were washed twice with PBS and incubated with […] L-POD for 0, 5, 15, 30, 45, and 60 minutes or 1 nmol Lissamine only for 60 minutes. Cells were fixed for 15 minutes in formalin at room temperature. Cells for live imaging were grown on 24 well plates and incubated with […] of L-POD. Following incubation, cells were washed three times with PBS, incubated in phenol red-free DMEM supplemented with 2% FBS. Cells were visualized by light and fluorescent microscopy using either an Olympus IX51 (live cells) or an Olympus BX51 (fixed cells) with DIC, RFP, and GFP filters. Images were obtained using a Retiga 2000R FAST camera and QCapture Pro 5.0 (QImaging, BC, Canada). To measure L-POD uptake in the presence of trypsin, 0.2×10^6 HER cells were incubated with 2.0 nmole L-POD in media for 15 minutes at 37° C. followed by incubation in 2.5 mg/ml trypsin for 12 minutes at 37° C. For analysis of uptake at 4° C., cells were cooled to 4° C. for 45 minutes prior to the addition of peptide and cold (4° C.) reagents were used for peptide administration. Following incubation with peptide, cells were washed twice with PBS and spun and resuspended in PBS for FACS analysis. For measurement of membrane permeabilization, HER cells were incubated with 2.0 nmole FITC-HBP for 30 minutes at 37° C., washed twice, isolated, and suspended in PBS with 1 μM PI. The number of PI-positive cells was analyzed by FACS. FACS analysis was performed using a FACSCalibur (Becton Dickinson). Examples were performed in triplicate and 10,000 events per sample were counted. Results were analyzed using CellQuest Pro software (Becton Dickinson).
Human embryonic retinal (HER) 911 cells [Fallaux F J et al. 1996 Hum. Gene Ther. 7: 215-222] incubated with […] (8 μM) lissamine-conjugated POD (L-POD), followed by formalin fixation, became […] to 558 nm excitation (emission measured at 583 nm) within 1 min and appeared normal in bright field (FIG. 1 panel A). Within 5 min, L-POD was seen within the cytoplasm with both a diffuse cytoplasmic and slightly punctate pattern (Figure panel A).
To determine whether L-POD was internalized or was non-specifically associated with the plasma membrane, HER cells incubated with 2 nmoles (8 μM) L-POD for 15 min were treated with trypsin at 37° C. prior to counting of lissamine-positive cells by FACS. […] Sensitivity of POD peptide to trypsin-mediated digestion was confirmed by incubation of […] of C-POD with trypsin prior to loading on an acrylamide gel (inset FIG. 1 panel C). Whereas 92.23±0.65% of HER cells were lissamine-positive when incubated with L-POD at 37° C., only 48.74±2.32% of cells were lissamine-positive when incubated with L-POD at 4° C. (FIG. 1 panel D).

[4] = system: neural retina; assay: Subretinal / intravitreal delivery of L-POD and QDPOD to retina in vivo; design: species or system C57BL/6J mice; details: 2 hours
Protocol: The use of animals in this work was in accordance with the ARVO Statement for the Use of Animals in Ophthalmic and Vision Research. C57BL/6J mice were purchased from Jackson Laboratories, bred and maintained in a 12-hour light-dark cycle and cared for in accordance with federal, state and local regulations. For each Example herein at least 4 mice (8 eyes) were investigated, yielding roughly similar results. Mice were anesthetized by […] injection of xylazine (10 mg/ml)/ketamine (1 mg/ml). Subretinal or intravitreal injections were performed with a 32 G needle attached to a 5 μl glass syringe (Hamilton) by a trans scleral trans choroidal approach to deliver 0.25 nmole of L-POD per eye. For topical delivery to cornea, male C57BL6/6J mice at 6 weeks of age were anesthetized by intraperitoneal injection of ketamine/xylazine and 10 nmoles of either L-POD or lissamine only were dropped on the cornea and incubated for 45 minutes or 24 hours. Upon completion of the treatment, the animal was sacrificed by CO2 inhalation followed by cervical dislocation and the eyes harvested and washed three times in PBS. Fluorescent and bright field images were taken of each eye using a Nikon C-FMC microscope prior to fixation. Eyes were fixed overnight at 4° C. in 4% paraformaldehyde and embedded in Optimal Cutting Temperature Compound and 14 μm sections were collected using a Microm 550 cryostat. […]

[5] = system: cornea, sclera, optic nerve; assay: Topical application of L-POD to whole mouse eye in vivo; design: species or system C57BL6/6J mice; details: for staining of external ocular tissues: topical, 10 nmol, 45 min
Protocol: The use of animals in this work was in accordance with the ARVO Statement for the Use of Animals in Ophthalmic and Vision Research. C57BL/6J mice were purchased from Jackson Laboratories, bred and maintained in a 12-hour light-dark cycle and cared for in accordance with federal, state and local regulations. For each Example herein at least 4 mice (8 eyes) were investigated, yielding roughly similar results. Mice were anesthetized by […] injection of xylazine (10 mg/ml)/ketamine (1 mg/ml). Subretinal or intravitreal injections were performed with a 32 G needle attached to a 5 μl glass syringe (Hamilton) by a trans scleral trans choroidal approach to deliver 0.25 nmole of L-POD per eye. For topical delivery to cornea, male C57BL6/6J mice at 6 weeks of age were anesthetized by intraperitoneal injection of ketamine/xylazine and 10 nmoles of either L-POD or lissamine only were dropped on the cornea and incubated for 45 minutes or 24 hours. Upon completion of the treatment, the animal was sacrificed by CO2 inhalation followed by cervical dislocation and the eyes harvested and washed three times in PBS. Fluorescent and bright field images were taken of each eye using a Nikon C-FMC microscope prior to fixation. Eyes were fixed overnight at 4° C. in 4% paraformaldehyde and embedded in Optimal Cutting Temperature Compound and 14 μm sections were collected using a Microm 550 cryostat.
To assess penetration of the cornea and sclera with L-POD, whole mouse eye was incubated in vivo with 10 nmol L-POD for 45 min followed by harvesting of ocular tissues.

[6] = system: HER cells; assay: Inhibition of L-POD uptake by proteoglycans; format: cell-based, human
Protocol: as §1
To determine whether L-POD uses cell surface proteoglycans for binding and cell entry, L-POD was pre incubated with different amounts of either of the proteoglycans chondroitin sulfate or heparan sulfate, prior to addition to HER cells. Based on data from preliminary studies, ratios of L-POD:proteoglycan of 1:3.33, 1:6.67 and 1:8 were selected.
In contrast, the uptake of a TRITC-conjugated peptide containing an integrin-binding RGD motif was not affected by pre-incubation with either proteoglycan (FIG. 3 panel A).

Compound: C[C@H](NC(=O)[C@H](CCCCN)NC(=O)[C@H](C)NC(=O)[C@H](C)NC(=O)[C@H](CCCCN)NC(=O)[C@H](CCCCN)NC(=O)[C@H](CCCNC(=N)N)NC(=O)[C@H](C)NC(=O)[C@H](C)NC(=O)[C@H](CCCCN)NC(=O)[C@H](C)NC(=O)[C@H](C)NC(=O)[C@H](CCCCN)NC(=O)[C@H](CCCCN)NC(=O)[C@H](CCCNC(=N)N)NC(=O)[C@H](C)NC(=O)[C@H](C)NC(=O)[C@H](CCCCN)NC(=O)[C@H](C)NC(=O)[C@H](C)NC(=O)[C@H](CCCCN)NC(=O)[C@H](CCCCN)NC(=O)[C@H](CCCNC(=N)N)NC(=O)[C@H](C)NC(=O)[C@H](C)NC(=O)[C@H](CCCCN)NC(=O)[C@H](C)NC(=O)[C@H](C)NC(=O)[C@H](CCCCN)NC(=O)[C@H](CCCCN)NC(=O)[C@H](CCCNC(=N)N)NC(=O)[C@H](C)NC(=O)CNC(=O)CNC(=O)CNC(=S)Nc1ccc2c(c1)C(=O)OC21c2ccc(O)cc2Oc2cc(O)ccc21)C(=O)O [F-POD] ({FITC}-GGGARKKAAKAARKKAAKAARKKAAKAARKKAAKA-OH)
- PI-positive cells [1]: 3.98±0.70%

Compound: GGG(ARKKAAKA)4 [POD]
- concentration giving significant inhibition of bacterial growth [2]: 0.3 µM

Compound: L-POD: N terminal lissamine conjugated GGG(ARKKAAKA)4 (SEQ ID NO: 1) (lissamine-GGGARKKAAKAARKKAAKAARKKAAKAARKKAAKA)
- lissamine-positive cells ([3]; 2 nmoles (8 μM) L-POD 15 min, with incubation with trypsin): 90.10±1.89%
- lissamine-positive cells ([3]; 2 nmoles (8 μM) L-POD 15 min, without incubation with trypsin): 92.23±0.65%
- time until L-POD was seen within the cytoplasm ([3]; 2 nmoles (8 μM) L-POD, formalin fixation): ≤ 5 min
- uptake of L-POD in the presence of inhibitors of endocytosis ([3]; chlorpromazine, genistein, filipin): no significant reduction
- lissamine-positive cells ([3]; incubated with L-POD at 4° C.): 48.74±2.32%
- lissamine-positive cells ([3]; incubated with L-POD at 37° C.): 92.23±0.65%
- transduction of neural retina ([4]; intravitreal): approximately 85%
- transduction of neural retina ([4]; subretinal): approximately 40%
- time to reach the optic nerve ([5]; administered topically): ≤ 45 min
- staining of external ocular tissues [5]: bound strongly to the cornea, sclera and unexpectedly, also the optic nerve
- uptake of L-POD (lissamine-positive cells) ([6]; chondroitin sulfate, 1:6.67): 59.43±1.55%
- uptake of L-POD (lissamine-positive cells) ([6]; chondroitin sulfate, 1:8): 34.38±3.13%
- uptake of L-POD (lissamine-positive cells) ([6]; chondroitin sulfate, L-POD:proteoglycan 1:3.33): 71.24±1.77%
- uptake of L-POD (lissamine-positive cells) ([6]; heparan sulfate, 1:3.33): 78.60±0.35%
- uptake of L-POD (lissamine-positive cells) ([6]; heparan sulfate, 1:6.67): 57.78±2.83%
- uptake of L-POD (lissamine-positive cells) ([6]; heparan sulfate, 1:8): 44.37±2.17%
- lissamine-positive cells ([6]; without pre incubation with any proteoglycan): 90.07±0.64%

Compound: Triton-X100 [reference compound]
- PI-positive cells [1]: 91.44±9.66%

Compound: lissamine [reference compound]
- uptake by HER cells (microscopy) ([3]; lissamine only, fixed cells): no evidence of uptake
- staining of external ocular tissues [5]: weakly stained the cornea and sclera and did not stain the optic nerve
